# In PMC11271627, “Molecular dynamics-guided optimization of BGM0504 enhances dual-target agonism for combating diabetes and obesity” (Scientific Reports, 2024):
# Marks after values point to notes of the source that are not given here.
# Tested on: STZ + HFD-induced C57BL/6 mice
# Assay: STZ + HFD-induced diabetes and NASH model in C57BL/6 mice
# Type: in vivo
# Settings: Mean±SEM; for Ballooning Degeneration score / Inflammatory Cell Infiltration score / NAS (NAFLD Activity Score) / Steatosis score: liver H&E staining; for Fibrosis percentage: liver Sirius red staining, fibrosis area of total section area; for ALT / AST: serum; for ALT: HFD 8 weeks
# Experimental: Both the control and model groups received a subcutaneous injection of the drug vehicle, while only the model group was fed a high-fat diet (HFD). […] This experiment involved selecting 30 SPF grade C57BL/6 pregnant female mice provided by Shanghai Jihui Experimental Animal Breeding Co., Ltd. Newborn male mice underwent subcutaneous injection of STZ (streptozotocin) (100 μg each) within 48 hours after birth and were nursed by their mothers for 4 weeks. During this period, we measured the fasting blood glucose of the mice and selected 65 diabetic male mice with fasting blood glucose values greater than or equal to 12 mmol/L as experimental animals. These mice were fed a HFD for 8 weeks to establish the STZ + HFD-induced diabetes and Nonalcoholic Steatohepatitis (NASH) model in male C57BL/6 mice. Fasting blood sugar was detected after 1 week of HFD feeding in these NASH model mice. Based on fasting blood sugar and body weight, they were randomly divided into the model group, the Tirzepatide-0.15 mg/kg group, the BGM0504-0.05 mg/kg group, the BGM0504-0.15 mg/kg group, and the BGM0504-0.5 mg/kg group. The treatment groups received administration once every 3 days. Additionally, their mothers nursed 10 newborn male mice without STZ injection for 4 weeks and then fed a regular maintenance diet as a control group. After HFD feeding, body weights were measured, and the animals’ food intake was recorded every 3 days until the end of the experiment. Three days after the last dose, animal weights were measured. Following a 6-hour fasting period, all experimental animals were anesthetized with an intraperitoneal injection of sodium pentobarbital. Non-anticoagulated whole blood was collected through the orbital venous plexus, left at room temperature for 30 minutes, and centrifuged at 5000 rpm for 5 minutes. The serum was separated and stored at -80°C for biochemical testing. After thawing the frozen serum samples, serum ALT, AST, TG, TC, HDL-c and LDL-c levels […] were measured using a Hitachi 7060 automatic biochemical detector. Insulin content was determined using an enzyme-linked immunoassay kit. After the dissection procedure, the liver was perfused with pre-cooled saline and then obtained and photographed. Its weight was also measured. Subsequently, the liver was immersed in 10% formalin for fixation and divided into two parts. One part underwent pathological hematoxylin and eosin (H&E) staining. The H&E staining was conducted on paraffin sections of all animal livers following the KCI pathology staining standard operating procedure (SOP). These stained sections were panoramically scanned using a NanoZoomer Digital Pathology scanner. Different fields of view were selected for observation at various magnifications, and the liver lobes in the sections were scored. The other part was subjected to pathological Sirius red (SR) staining. Similarly, SR staining was performed on paraffin sections of the liver following the KCI pathology staining SOP. The stained sections were also panoramically scanned using the NanoZoomer Digital Pathology scanner. Subsequently, VIS7.0 software was utilized to analyze the liver fibrosis area in the panoramically examined SR-stained sections, and the percentage of the liver fibrosis area with the total section area was calculated.
# [1] = 0.05 mg/kg once every 3 days, n=11
# [2] = 0.15 mg/kg once every 3 days, n=13
# [3] = 0.5 mg/kg once every 3 days, n=13
compound,measurement,setting,value
CC[C@H](C)[C@H](NC(=O)[C@H](CC(C)C)NC(=O)[C@H](Cc1c[nH]c2ccccc12)NC(=O)[C@H](CCC(N)=O)NC(=O)[C@@H](NC(=O)[C@H](Cc1ccccc1)NC(=O)[C@H](C)NC(=O)[C@H](CCCCN)NC(=O)[C@H](CCC(N)=O)NC(=O)[C@H](C)NC(=O)[C@@H](NC(=O)[C@H](CCCCN)NC(=O)[C@H](CC(=O)O)NC(=O)[C@H](CC(C)C)NC(=O)C(C)(C)NC(=O)[C@@H](NC(=O)[C@H](CO)NC(=O)[C@H](Cc1ccc(O)cc1)NC(=O)[C@H](CC(=O)O)NC(=O)[C@H](CO)NC(=O)[C@@H](NC(=O)[C@H](Cc1ccccc1)NC(=O)[C@@H](NC(=O)CNC(=O)[C@H](CCC(=O)O)NC(=O)C(C)(C)NC(=O)[C@@H](N)Cc1ccc(O)cc1)[C@@H](C)O)[C@@H](C)O)[C@@H](C)CC)[C@@H](C)CC)C(C)C)C(=O)N[C@@H](C)C(=O)NCC(=O)NCC(=O)N1CCC[C@H]1C(=O)N[C@@H](CO)C(=O)N[C@@H](CO)C(=O)NCC(=O)N[C@@H](C)C(=O)N1CCC[C@H]1C(=O)N1CCC[C@H]1C(=O)N1CCC[C@H]1C(=O)N[C@@H](CO)C(=O)N[C@@H](CCCCNC(=O)COCCOCCOCCNC(=O)COCCOCCOCCNC(=O)CC[C@H](NC(=O)CCCCCCCCCCCCCCCCCCC(=O)O)C(=O)O)C(N)=O [BGM0504],HDL-c,[1],2.30 ± 0.09 mmol/L
same,LDL-c,[1],0.56±0.03^b mmol/L
same,TC,[1],3.81±0.15^c mmol/L
same,TG,[1],1.09±0.20^b mmol/L
same,HDL-c,[2],1.83 ± 0.22 mmol/L
same,LDL-c,[2],0.65±0.10^c mmol/L
same,TC,[2],3.25±0.12^c mmol/L
same,TG,[2],0.84±0.12^b mmol/L
same,HDL-c,[3],2.13 ± 0.13 mmol/L
same,LDL-c,[3],0.62±0.03^c mmol/L
same,TC,[3],3.53±0.09^c mmol/L
same,TG,[3],0.88±0.14^b mmol/L
same,Ballooning Degeneration score,"0.05 mg/kg, n=11",0.00±0.00
same,Inflammatory Cell Infiltration score,"0.05 mg/kg, n=11",0.91±0.08^a
same,NAS (NAFLD Activity Score),"0.05 mg/kg, n=11",1.42±0.14^a
same,Steatosis score,"0.05 mg/kg, n=11",0.52±0.12^a
same,Ballooning Degeneration score,"0.15 mg/kg, n=13",0.00±0.00^a
same,Inflammatory Cell Infiltration score,"0.15 mg/kg, n=13",0.90±0.06^a
same,NAS (NAFLD Activity Score),"0.15 mg/kg, n=13",1.36±0.15^a
same,Steatosis score,"0.15 mg/kg, n=13",0.46±0.13^a
same,Ballooning Degeneration score,"0.5 mg/kg, n=13",0.00±0.00
same,Inflammatory Cell Infiltration score,"0.5 mg/kg, n=13",1.03±0.05^a
same,NAS (NAFLD Activity Score),"0.5 mg/kg, n=13",1.36±0.10^a
same,Steatosis score,"0.5 mg/kg, n=13",0.33±0.08^a
same,Fibrosis percentage,"0.05 mg/kg, n=11",1.11±0.05^a %
same,Fibrosis percentage,"0.15 mg/kg, n=13",1.10±0.04^b %
same,Fibrosis percentage,"0.5 mg/kg, n=13",1.07±0.05^c %
same,ALT,[1],73.97±9.20 U/L
same,AST,[1],155.44±10.85 U/L
same,ALT,[2],67.58±7.73^a U/L
same,AST,[2],152.48±6.56^a U/L
same,ALT,[3],58.46±5.38^b U/L
same,AST,[3],150.54±6.26^a U/L
